# Test results from ChEMBL document CHEMBL1137456, “The synthesis and biological activity of pentafluorosulfanyl analogs of fluoxetine, fenfluramine, and norfenfluramine” (Bioorg Med Chem, 2007).
# What was measured:
# Type in all cases: cell-based
# Conditions in all cases: COS-7
# [1] = molecular target: 5-hydroxytryptamine receptor 1E (Homo sapiens) (UniProt P28566); test: Inhibition of human 5HT1E expressed in COS7 cells at 10 uM
# [2] = molecular target: T1, 5-hydroxytryptamine receptor 2C (Rattus norvegicus) (UniProt P08909); test: Inhibition of rat 5HT2C expressed in COS7 cells at 10 uM
# T1 sequence (whole entry): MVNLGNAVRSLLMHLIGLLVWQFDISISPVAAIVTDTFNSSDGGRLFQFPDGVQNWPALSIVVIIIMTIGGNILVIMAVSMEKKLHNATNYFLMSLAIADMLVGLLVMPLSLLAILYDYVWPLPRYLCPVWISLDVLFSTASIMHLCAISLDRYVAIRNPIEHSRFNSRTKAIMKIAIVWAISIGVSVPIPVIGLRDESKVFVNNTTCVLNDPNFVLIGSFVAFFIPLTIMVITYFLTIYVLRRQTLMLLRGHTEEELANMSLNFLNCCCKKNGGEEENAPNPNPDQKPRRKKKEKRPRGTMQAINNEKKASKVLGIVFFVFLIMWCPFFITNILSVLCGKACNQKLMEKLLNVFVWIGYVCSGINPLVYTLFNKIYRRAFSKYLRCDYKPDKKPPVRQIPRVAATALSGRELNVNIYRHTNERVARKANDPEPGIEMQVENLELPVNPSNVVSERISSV
# [3] = molecular target: 5-hydroxytryptamine receptor 1D (Homo sapiens) (UniProt P28221); test: Inhibition of human 5HT1D expressed in COS7 cells at 10 uM
# [4] = molecular target: T2, 5-hydroxytryptamine receptor 1A (Homo sapiens) (UniProt P08908); test: Inhibition of human 5HT1A expressed in COS7 cells at 10 uM
# T2 sequence (whole entry): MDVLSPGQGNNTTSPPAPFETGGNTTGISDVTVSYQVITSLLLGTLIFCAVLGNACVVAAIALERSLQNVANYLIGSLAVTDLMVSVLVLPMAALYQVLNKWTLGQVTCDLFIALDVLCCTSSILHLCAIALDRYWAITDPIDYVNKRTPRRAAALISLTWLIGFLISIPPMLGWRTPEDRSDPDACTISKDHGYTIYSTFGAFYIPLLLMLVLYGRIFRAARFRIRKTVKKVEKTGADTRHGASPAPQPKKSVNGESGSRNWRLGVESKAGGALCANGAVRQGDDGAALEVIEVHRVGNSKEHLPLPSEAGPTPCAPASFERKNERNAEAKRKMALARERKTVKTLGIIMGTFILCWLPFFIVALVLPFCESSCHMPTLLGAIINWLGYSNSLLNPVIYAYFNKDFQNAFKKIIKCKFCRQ
# [5] = molecular target: 5-hydroxytryptamine receptor 6 (Homo sapiens) (UniProt P50406); test: Inhibition of human 5HT6 expressed in COS7 cells at 10 uM
# [6] = molecular target: 5-hydroxytryptamine receptor 2A (Rattus norvegicus) (UniProt P14842); test: Inhibition of rat 5HT2A expressed in COS7 cells at 10 uM
# [7] = molecular target: 5-hydroxytryptamine receptor 7 (Homo sapiens) (UniProt P34969); test: Inhibition of human 5HT7 expressed in COS7 cells at 10 uM
# [8] = molecular target: 5-hydroxytryptamine receptor 1B (Homo sapiens) (UniProt P28222); test: Inhibition of human 5HT1B expressed in COS7 cells at 10 uM
# [9] = molecular target: 5-hydroxytryptamine receptor 5A (Homo sapiens) (UniProt P47898); test: Inhibition of human 5HT5A expressed in COS7 cells at 10 uM
# [10] = molecular target: T3, 5-hydroxytryptamine receptor 3A (Homo sapiens) (UniProt P46098); test: Inhibition of human 5HT3 expressed in COS7 cells at 10 uM
# T3 sequence (whole entry): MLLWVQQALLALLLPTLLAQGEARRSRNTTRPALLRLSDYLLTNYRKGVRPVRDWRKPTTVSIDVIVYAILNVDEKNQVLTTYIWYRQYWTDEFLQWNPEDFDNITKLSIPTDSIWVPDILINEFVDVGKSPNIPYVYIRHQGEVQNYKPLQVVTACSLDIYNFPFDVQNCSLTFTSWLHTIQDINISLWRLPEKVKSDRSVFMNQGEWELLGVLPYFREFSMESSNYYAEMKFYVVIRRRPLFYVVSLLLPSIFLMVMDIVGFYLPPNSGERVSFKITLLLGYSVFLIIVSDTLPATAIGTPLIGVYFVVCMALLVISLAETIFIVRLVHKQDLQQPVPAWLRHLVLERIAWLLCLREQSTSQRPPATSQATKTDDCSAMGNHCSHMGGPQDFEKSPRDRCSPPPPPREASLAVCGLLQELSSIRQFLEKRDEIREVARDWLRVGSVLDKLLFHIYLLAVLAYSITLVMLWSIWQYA
# [11] = molecular target: 5-hydroxytryptamine receptor 2B (Homo sapiens) (UniProt P41595); test: Inhibition of human 5HT2B expressed in COS7 cells at 10 uM
# Sequence of 5-hydroxytryptamine receptor 2B (Homo sapiens) (P41595 whole entry): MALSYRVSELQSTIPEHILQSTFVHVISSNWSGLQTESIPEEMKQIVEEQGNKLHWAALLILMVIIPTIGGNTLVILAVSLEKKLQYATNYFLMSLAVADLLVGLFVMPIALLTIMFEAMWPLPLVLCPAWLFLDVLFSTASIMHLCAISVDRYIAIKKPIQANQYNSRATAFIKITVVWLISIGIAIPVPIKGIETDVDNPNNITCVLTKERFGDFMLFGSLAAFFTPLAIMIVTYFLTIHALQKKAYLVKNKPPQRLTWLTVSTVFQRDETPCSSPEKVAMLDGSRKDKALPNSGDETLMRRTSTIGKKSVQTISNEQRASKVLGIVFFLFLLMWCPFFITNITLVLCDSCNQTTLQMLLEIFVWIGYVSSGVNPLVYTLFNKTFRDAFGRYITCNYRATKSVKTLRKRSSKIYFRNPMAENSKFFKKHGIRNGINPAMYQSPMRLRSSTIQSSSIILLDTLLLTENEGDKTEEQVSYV
# Sequence of 5-hydroxytryptamine receptor 1E (Homo sapiens) (P28566 whole entry): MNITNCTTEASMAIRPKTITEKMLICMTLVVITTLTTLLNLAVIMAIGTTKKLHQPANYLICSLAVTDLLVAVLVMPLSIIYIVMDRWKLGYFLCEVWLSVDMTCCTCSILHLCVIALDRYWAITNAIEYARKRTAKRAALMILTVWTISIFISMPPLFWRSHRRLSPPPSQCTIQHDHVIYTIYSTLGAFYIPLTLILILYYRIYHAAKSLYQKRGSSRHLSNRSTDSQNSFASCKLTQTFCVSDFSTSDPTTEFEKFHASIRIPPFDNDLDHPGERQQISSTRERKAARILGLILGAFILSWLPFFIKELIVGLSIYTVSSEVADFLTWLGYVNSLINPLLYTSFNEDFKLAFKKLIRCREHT
# Sequence of 5-hydroxytryptamine receptor 6 (Homo sapiens) (P50406 whole entry): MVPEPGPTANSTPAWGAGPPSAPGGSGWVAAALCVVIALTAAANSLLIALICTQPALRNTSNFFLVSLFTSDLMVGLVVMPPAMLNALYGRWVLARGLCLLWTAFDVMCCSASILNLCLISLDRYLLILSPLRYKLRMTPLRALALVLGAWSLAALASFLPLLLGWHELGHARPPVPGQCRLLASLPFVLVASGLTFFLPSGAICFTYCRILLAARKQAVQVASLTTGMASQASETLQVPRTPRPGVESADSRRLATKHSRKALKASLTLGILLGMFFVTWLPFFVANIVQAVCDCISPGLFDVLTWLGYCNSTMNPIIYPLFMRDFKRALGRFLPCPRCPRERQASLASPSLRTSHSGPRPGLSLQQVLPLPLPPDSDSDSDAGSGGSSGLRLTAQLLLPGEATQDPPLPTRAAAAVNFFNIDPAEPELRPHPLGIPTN
# Sequence of 5-hydroxytryptamine receptor 7 (Homo sapiens) (P34969 whole entry): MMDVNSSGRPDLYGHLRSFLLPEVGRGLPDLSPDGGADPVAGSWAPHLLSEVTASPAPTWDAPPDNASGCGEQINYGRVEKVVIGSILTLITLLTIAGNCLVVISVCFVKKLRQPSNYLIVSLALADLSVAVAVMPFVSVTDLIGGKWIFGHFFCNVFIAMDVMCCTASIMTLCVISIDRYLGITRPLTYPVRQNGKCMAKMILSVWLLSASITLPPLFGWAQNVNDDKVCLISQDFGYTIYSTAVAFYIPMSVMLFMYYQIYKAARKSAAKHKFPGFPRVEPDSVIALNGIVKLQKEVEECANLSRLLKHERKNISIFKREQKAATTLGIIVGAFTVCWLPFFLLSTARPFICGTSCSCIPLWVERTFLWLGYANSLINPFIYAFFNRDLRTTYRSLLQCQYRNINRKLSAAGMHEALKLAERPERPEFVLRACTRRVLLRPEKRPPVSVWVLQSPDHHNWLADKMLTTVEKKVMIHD
# Sequence of 5-hydroxytryptamine receptor 1D (Homo sapiens) (P28221 whole entry): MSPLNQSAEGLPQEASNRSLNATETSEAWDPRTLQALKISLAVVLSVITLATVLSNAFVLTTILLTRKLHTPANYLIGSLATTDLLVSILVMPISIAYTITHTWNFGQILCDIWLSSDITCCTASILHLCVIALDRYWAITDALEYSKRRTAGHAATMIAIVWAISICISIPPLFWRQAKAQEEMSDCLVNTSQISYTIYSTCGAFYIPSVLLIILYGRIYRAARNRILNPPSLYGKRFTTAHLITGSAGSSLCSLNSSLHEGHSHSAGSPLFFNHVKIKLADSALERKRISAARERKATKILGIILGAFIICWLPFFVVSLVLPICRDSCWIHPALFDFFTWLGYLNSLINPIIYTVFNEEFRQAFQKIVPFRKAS
# Sequence of 5-hydroxytryptamine receptor 1B (Homo sapiens) (P28222 whole entry): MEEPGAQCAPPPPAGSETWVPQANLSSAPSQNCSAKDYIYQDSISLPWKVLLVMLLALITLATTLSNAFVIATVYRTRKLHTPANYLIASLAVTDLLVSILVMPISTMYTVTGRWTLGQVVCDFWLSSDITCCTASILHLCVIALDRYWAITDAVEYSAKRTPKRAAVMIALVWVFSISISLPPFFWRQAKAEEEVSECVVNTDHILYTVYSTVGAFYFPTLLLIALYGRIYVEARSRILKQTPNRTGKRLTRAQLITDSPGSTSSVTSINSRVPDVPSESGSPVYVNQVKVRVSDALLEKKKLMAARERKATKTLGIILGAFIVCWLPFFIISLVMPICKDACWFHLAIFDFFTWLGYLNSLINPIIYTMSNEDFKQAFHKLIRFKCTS
# Sequence of 5-hydroxytryptamine receptor 5A (Homo sapiens) (P47898 whole entry): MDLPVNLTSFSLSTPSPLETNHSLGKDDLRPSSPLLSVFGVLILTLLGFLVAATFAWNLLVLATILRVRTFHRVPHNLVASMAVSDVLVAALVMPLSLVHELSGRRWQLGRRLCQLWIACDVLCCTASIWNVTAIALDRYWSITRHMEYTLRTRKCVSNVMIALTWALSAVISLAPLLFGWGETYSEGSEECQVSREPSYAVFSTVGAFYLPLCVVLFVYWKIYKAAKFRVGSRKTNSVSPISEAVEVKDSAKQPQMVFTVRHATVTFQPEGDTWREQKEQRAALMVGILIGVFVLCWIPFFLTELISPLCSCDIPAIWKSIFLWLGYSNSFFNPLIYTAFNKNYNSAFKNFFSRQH
# Sequence of 5-hydroxytryptamine receptor 2A (Rattus norvegicus) (P14842 whole entry): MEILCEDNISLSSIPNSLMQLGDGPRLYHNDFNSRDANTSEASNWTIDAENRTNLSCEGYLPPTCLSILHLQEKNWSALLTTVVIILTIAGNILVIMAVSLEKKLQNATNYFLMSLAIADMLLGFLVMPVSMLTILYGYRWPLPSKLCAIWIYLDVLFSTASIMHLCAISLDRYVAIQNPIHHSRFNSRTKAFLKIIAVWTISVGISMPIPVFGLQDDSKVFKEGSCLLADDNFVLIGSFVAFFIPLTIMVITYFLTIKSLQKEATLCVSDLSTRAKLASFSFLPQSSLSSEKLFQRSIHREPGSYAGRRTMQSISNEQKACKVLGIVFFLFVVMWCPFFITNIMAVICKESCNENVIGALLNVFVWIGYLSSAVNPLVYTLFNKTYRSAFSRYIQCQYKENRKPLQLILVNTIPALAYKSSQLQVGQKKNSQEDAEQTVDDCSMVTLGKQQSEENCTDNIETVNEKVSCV
SMILES,inhibition [1],inhibition [2],inhibition [3],inhibition [4],inhibition [5],inhibition [6],inhibition [7],inhibition [8],inhibition [9],inhibition [10],inhibition [11]
CC(N)Cc1cccc(S(F)(F)(F)(F)F)c1 (stereo not drawn),23.4%,94.6%,73.7%,50%,50%,85.9%,50%,62.9%,31.3%,-6.1%,89.6%
CCNC(C)Cc1cccc(S(F)(F)(F)(F)F)c1 (stereo not drawn),7.3%,72.8%,15.2%,85.5%,50%,53.2%,50%,63.5%,62.7%,14.6%,85.3%
CNCCC(Oc1ccc(S(F)(F)(F)(F)F)cc1)c1ccccc1 (stereo not drawn),77.8%,75.8%,12.7%,-3%,1.5%,97.3%,12%,3.4%,25%,6.8%,71.9%
